Experimental findings from patent US20240182445A1 (ONO PHARMACEUTICAL CO., LTD., priority 2019, published 2024) are described below.

Each structure is given as a SMILES string.

For the first test, the target named is T1, human TREK-1 (Homo sapiens, UniProt O95069).
T1 construct: expressed in transfected cells
T1 sequence (O95069 1-426): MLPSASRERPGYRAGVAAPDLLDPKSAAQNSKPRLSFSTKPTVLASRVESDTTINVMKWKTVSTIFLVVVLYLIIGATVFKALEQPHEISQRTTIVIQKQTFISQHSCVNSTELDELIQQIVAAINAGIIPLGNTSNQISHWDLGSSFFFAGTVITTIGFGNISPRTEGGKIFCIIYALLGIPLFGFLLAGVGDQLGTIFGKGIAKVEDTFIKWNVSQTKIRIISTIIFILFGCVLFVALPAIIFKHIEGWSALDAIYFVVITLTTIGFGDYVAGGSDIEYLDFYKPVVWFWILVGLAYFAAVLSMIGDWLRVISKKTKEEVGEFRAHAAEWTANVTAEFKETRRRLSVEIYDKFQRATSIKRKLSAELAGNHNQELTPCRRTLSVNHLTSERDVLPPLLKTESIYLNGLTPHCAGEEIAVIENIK
Nature of the test: TREK-1 Thallium (Tl+) flux assay, Method 1. The test is classed as cell-based. The settings on record: TREK-1 Thallium (Tl+) flux assay, Method 1. How it is done:
The term “thallium flux assay” herein refers to a fluorescence-based assay used to monitor the activity of TREK channels. Thallium is a congener of potassium that readily fluxes through the pore of TREK channels. Thallium flux is measured using a commercially available, thallium-sensitive fluorescent dye called Thallos. The detail method is described below.
CHO-K1 cells stably expressing human TREK-1 were plated in 384-well plates, cultured overnight, loaded with Thallos dye the following day. Test compounds or control compound (tert-butyl (3-((4-(benzyloxy)-2-methylphenyl)carbamoyl)-4-chlorophenyl)carbamate) or 0.3% DMSO (vehicle control) which were prepared on separate plates were added to the cell plates and incubated for 10 min, and then the cells were treated with thallium stimulus buffer to initiate thallium flux. To measure the efficacy and potency of test compounds, the change in fluorescence intensity (ΔRatio) and % inhibition were calculated using the following equations:
ΔRatio=(fluorescence intensity at 25 seconds after thallium addition)/(average of fluorescent intensity before thallium addition)
`CCC(=O)N1CCOC(Cn2ncc(Cl)c2C(=O)Nc2ccc(OCc3ccccc3)cc2C)C1` (centres unmarked) [Compound 435] displayed an IC50 of 8110 nM.

Compound `CC(=O)N1CCC(n2ncc(Cl)c2C(=O)Nc2ncc(-c3ccc(OC(F)(F)F)cc3)cc2C)CC1` [Compound 414, 1-(1-acetylpiperidin-4-yl)-4-chloro-N-(3-methyl-5-(4-(trifluoromethoxy)phenyl)pyridin-2-yl)-1H-pyrazole-5-carboxamide] yielded an IC50 of 3620 nM. The compound `COc1ccc(-c2cnc(NC(=O)c3c(Cl)cnn3C3CCN(C(=O)OC(C)(C)C)CC3)c(C)c2)cn1` [Compound 407, tert-butyl 4-(4-chloro-5-((6′-methoxy-5-methyl-[3,3′-bipyridin]-6-yl)carbamoyl)-1H-pyrazol-1-yl)piperidine-1-carboxylate] yielded an IC50 of 2570 nM. This IC50 and that of the compound before are within 1.5-fold of each other.

Staying with this test, now noted: TREK-1 Thallium (Tl+) flux assay; no *^12 (Method 2) mark on these rows.
The compound `Cc1cc(C#Cc2ccccc2)cnc1NC(=O)c1c(Cl)cnn1[C@H]1C[C@@H]2CN(C(=O)C(C)C)C[C@@H]2C1` [Compound 317, 4-chloro-N-[3-methyl-5-(phenylethynyl)pyridin-2-yl]-1-[(3aR,5s,6aS)-2-(2-methylpropanoyl)octahydrocyclopenta [c]pyrrol-5-yl]-1H-pyrazole-5-carboxamide] returned an IC50 of 610 nM.

`O=C(Nc1ncc(C#Cc2ccccc2)cc1F)c1c(Cl)cnn1CC1CCCO1` (centres unmarked) [Compound 366, 4-chloro-N-(3-fluoro-5-(phenylethynyl)pyridin-2-yl)-1-((tetrahydrofuran-2-yl)methyl)-1H-pyrazole-5-carboxamide] registered an IC50 of 930 nM. `CC(=O)N1CCC(Cn2ncc(Cl)c2C(=O)Nc2ncc(C#Cc3ccc(F)cc3)cc2C)C(F)(F)C1` (centres unmarked) [Compound 313, 1-((1-acetyl-3,3-difluoropiperidin-4-yl)methyl)-4-chloro-N-(5-((4-fluorophenyl)ethynyl)-3-methylpyridin-2-yl)-1H-pyrazole-5-carboxamide]: the IC50 was 590 nM.

The compound `CC(=O)N1CCC2(CC(n3ncc(Cl)c3C(=O)Nc3ncc(C#Cc4ccc(F)cc4)cc3C)C2)C1` (centres unmarked) [Compound 312, 1-(6-acetyl-6-azaspiro[3.4]octan-2-yl)-4-chloro-N-{5-[(4-fluorophenyl)ethynyl]-3-methylpyridin-2-yl}-1H-pyrazole-5-carboxamide] displayed an IC50 of 590 nM.

Compound `Cc1cc(C#Cc2ccc(F)cc2)cnc1NC(=O)c1c(Cl)cnn1CC1(F)CCN(C(=O)C2CC2)CC1` [Compound 302, 4-chloro-1-((1-(cyclopropanecarbonyl)-4-fluoropiperidin-4-yl)methyl)-N-(5-((4-fluorophenyl)ethynyl)-3-methylpyridin-2-yl)-1H-pyrazole-5-carboxamide] returned an IC50 of 550 nM. This IC50 and that of the compound before are within 1.5-fold of each other. As to `CC(=O)N1C[C@H]2C[C@H](n3ncc(Cl)c3C(=O)Nc3ncc(C#Cc4cccc(F)c4)cc3C)C[C@H]2C1` [Compound 195, 1-[(3aR,5s,6aS)-2-acetyloctahydrocyclopenta[c]pyrrol-5-yl]-4-chloro-N-{5-[(3-fluorophenyl)ethynyl]-3-methylpyridin-2-yl}-1H-pyrazole-5-carboxamide], the IC50 is 300 nM. Compared with the last compound, the IC50 is about 1.8-fold lower. On the same count and under the same terms, under `O=C(Nc1ncc(C#Cc2ccccc2)cc1F)c1c(Cl)cnn1C1CCN(C(=O)C2CCCC2)CC1` [Compound 299, 4-chloro-1-(1-(cyclopentanecarbonyl)piperidin-4-yl)-N-(3-fluoro-5-(phenylethynyl)pyridin-2-yl)-1H-pyrazole-5-carboxamide] stands 540 nM.

As to `Cc1cc(C#Cc2ccccc2)cnc1NC(=O)c1c(Cl)ccn1CC1CCOCC1` [Compound 375, 3-chloro-N-(3-methyl-5-(phenylethynyl)pyridin-2-yl)-1-((tetrahydro-2H-pyran-4-yl)methyl)-1H-pyrrole-2-carboxamide], the IC50 is 1150 nM. `CC(=O)N1CC[C@@H](Cn2ncc(Cl)c2C(=O)Nc2ncc(C#Cc3ccc(F)cc3)cc2C)[C@H](F)C1` [Compound 341, 1-(((3S,4S)-1-acetyl-3-fluoropiperidin-4-yl)methyl)-4-chloro-N-(5-((4-fluorophenyl)ethynyl)-3-methylpyridin-2-yl)-1H-pyrazole-5-carboxamide] registered an IC50 of 740 nM. `COc1ncc(-c2cnc(NC(=O)c3c(Cl)cnn3C3CCN(C(=O)OC(C)(C)C)CC3)c(C)c2)cc1F` [Compound 383, tert-butyl 4-(4-chloro-5-((5′-fluoro-6′-methoxy-5-methyl-[3,3′-bipyridin]-6-yl)carbamoyl)-1H-pyrazol-1-yl)piperidine-1-carboxylate] showed an IC50 of 680 nM. The compound `Cc1cc(C#Cc2ccccc2)cnc1NC(=O)c1c(Cl)cnn1CC1CCN(C(=O)OC(C)(C)C)CC1C` (centres unmarked) [Compound 265, tert-butyl 4-((4-chloro-5-((3-methyl-5-(phenylethynyl)pyridin-2-yl)carbamoyl)-1H-pyrazol-1-yl)methyl)-3-methylpiperidine-1-carboxylate] came in with an IC50 of 430 nM. The compound `CCC(=O)N1CCCC(Cn2ncc(Cl)c2C(=O)Nc2ncc(C#Cc3ccc(F)cc3)cc2C)C1` (centres unmarked) [Compound 355, 4-chloro-N-(5-((4-fluorophenyl)ethynyl)-3-methylpyridin-2-yl)-1-((1-propionylpiperidin-3-yl)methyl)-1H-pyrazole-5-carboxamide] returned an IC50 of 850 nM.

For the compound `Cc1cc(C#Cc2ccccc2)cnc1NC(=O)c1c(Cl)cnn1CC(C)(C)C#N` [Compound 276, 4-chloro-1-(2-cyano-2-methylpropyl)-N-(3-methyl-5-(phenylethynyl)pyridin-2-yl)-1H-pyrazole-5-carboxamide], the IC50 came out at 480 nM.

The test is the same for the next values; noted with them: TREK-1 Thallium (Tl+) flux assay; values without footnote *12 are Method 1.
In turn, `CCNC(=O)N1CCC(n2ncc(Cl)c2C(=O)Nc2ncc(C#Cc3ccccc3)cc2F)CC1` [Compound 158, 4-(4-chloro-5-((3-fluoro-5-(phenylethynyl)pyridin-2-yl)carbamoyl)-1H-pyrazol-1-yl)-N-ethylpiperidine-1-carboxamide] displayed a half-maximal inhibitory concentration (IC50) of 250 nM. This counts as sub-micromolar. Still for that read-out and setting: under `Cc1cc(C#Cc2ccccc2)cnc1NC(=O)c1c(Cl)cnn1CCC1CCN(C(=O)C2CC2)CC1` [Compound 172, 4-chloro-1-(2-(1-(cyclopropanecarbonyl)piperidin-4-yl)ethyl)-N-(3-methyl-5-(phenylethynyl)pyridin-2-yl)-1H-pyrazole-5-carboxamide] stands 270 nM; under `CCC(=O)N1CC(n2ncc(Cl)c2C(=O)Nc2ncc(C#Cc3ccccc3)cc2C)C1` [Compound 137, 4-chloro-N-(3-methyl-5-(phenylethynyl)pyridin-2-yl)-1-(1-propionylazetidin-3-yl)-1H-pyrazole-5-carboxamide], 220 nM.

`Cc1cc(C#Cc2ccccc2)cnc1NC(=O)c1c(Cl)cnn1CCCC#N` [Compound 167, 4-chloro-1-(3-cyanopropyl)-N-(3-methyl-5-(phenylethynyl)pyridin-2-yl)-1H-pyrazole-5-carboxamide] yielded an IC50 of 270 nM. Still for that read-out and setting: for `Cc1cc(C#Cc2ccccc2)cnc1NC(=O)c1c(Cl)cnn1CCC1CCN(C(=O)C(C)C)CC1` [Compound 188, 4-chloro-1-(2-(1-isobutyrylpiperidin-4-yl)ethyl)-N-(3-methyl-5-(phenylethynyl)pyridin-2-yl)-1H-pyrazole-5-carboxamide] the value was 290 nM. For the compound `CS(=O)(=O)N1CCC(n2ncc(Cl)c2C(=O)Nc2ncc(C#Cc3ccccc3)cc2F)CC1` [Compound 70, 4-chloro-N-(3-fluoro-5-(phenylethynyl)pyridin-2-yl)-1-(1-(methylsulfonyl)piperidin-4-yl)-1H-pyrazole-5-carboxamide], the IC50 was 160 nM. `O=C(Nc1ncc(C#Cc2ccccc2)cc1F)c1c(Cl)cnn1C[C@@H]1CCOC1` [Compound 148, (S)-4-chloro-N-(3-fluoro-5-(phenylethynyl)pyridin-2-yl)-1-((tetrahydrofuran-3-yl)methyl)-1H-pyrazole-5-carboxamide]: the IC50 is 240 nM. Against the preceding compound, the IC50 is about 1.5-fold higher. `CC(=O)N[C@H]1C[C@@H](n2ncc(Cl)c2C(=O)Nc2ncc(C#Cc3ccccc3)cc2C)C1` [Compound 64, 1-(cis-3-acetamidocyclobutyl)-4-chloro-N-(3-methyl-5-(phenylethynyl)pyridin-2-yl)-1H-pyrazole-5-carboxamide] displayed an IC50 of 150 nM.

The same test, now with this note: read-out: Tl^+ Assay % inhibition at 30 uM (Minus value indicates activation of TREK-1); at 30 uM; CHO-K1 cells stably expressing human TREK-1; minus = activation.
In the case of `Cc1cc(C#Cc2cccc(F)c2)cnc1NC(=O)c1nn(CCC2CCN(C(=O)C3CC3)CC2)cc1Cl` [Compound 450, 4-chloro-1-(2-(1-(cyclopropanecarbonyl)piperidin-4-yl)ethyl)-N-(5-((3-fluorophenyl)ethynyl)-3-methylpyridin-2-yl)-1H-pyrazole-3-carboxamide], the inhibition at 30 µM was -94%. With `Cc1cc(C#Cc2ccccc2)cnc1NC(=O)c1nn(CC2COCCO2)cc1Cl` (centres unmarked) [Compound 449, 1-((1,4-dioxan-2-yl)methyl)-4-chloro-N-(3-methyl-5-(phenylethynyl)pyridin-2-yl)-1H-pyrazole-3-carboxamide], the inhibition at 30 µM is -99%.

In general, IC50 refers to the point on the concentration scale where inhibition reaches its midpoint. High values mean lower potency, low ones higher potency. A word on the inhibition: it is the relative decrease from the control value, in per cent.
